Where “and” joins values, the source holds several entries; their conditions need not be identical. Equal values may be shown once. Read-outs that look alike come from different tables or passages of the source.
Legend:
Plasmopara viticola [1] = settings: Plasmopara viticola, 168 h, read-out: Preventive value
Method: Test plants (variety: Neo Muscat) were seeded and grown until three leaves. D-Tagatose was diluted to 5000 ppm and the fungicides were diluted to the concentrations listed in table 16, with distilled water, and 10 ml of the dilution was sprayed on the plants. Three days after the spraying of the dilution, the plants were infected by spraying a sporangium suspension of Plasmopara viticola containing 1×10^3/ml and then put for 16 hours in an inoculation chamber (20° C. to 23° C.) to promote disease. The disease severity of the test plants was observed 7 days after inoculation, and the effectiveness of test sample was judged.

Plasmopara viticola [2] = assay: vine downy mildew, field test; settings: for D.D.S (Degree of disease severity), Av / P.V. (Preventive value), Av / n/N × 100, Av: average of plots
Method: Test plants (variety: kyoho) were grown until approximately 10 leaves. […] After the first spraying of the dilution, grape leaves were infected by spraying a sporangium suspension of Plasmopara viticola containing 1×10^3/ml. The disease severity of the test plants was observed 7 days after last spraying, and the effectiveness of test sample was judged. Tests were carried out in triplicate using half of the test plant per each test. The disease severity of the test plants was judged in accordance with the following criteria. The preventive value was calculated from the degree of disease severity.
0 (No lesion) 1 (Lesion area was not more than 5% of the leaf area) 2 ((Lesion area was 5%-25% of the leaf area) 3 (Lesion area was 25%-50% of the leaf area) 4 (Lesion area was not less than 50% of the leaf area)

[3] = tested on: Pseudoperonospora cubensis; settings: for Preventive value: 5 ml soil drench, inoculated 5 days after drenching
Method: Test plants (cucumber, variety: Sagami hanpaku) were seeded and grown until the one true leaf stage. D-Tagatose was diluted to 5% and 1% with distilled water and then 5 ml of the dilution was drenched into the soil of the pot. Five days after drenching, a sporangium suspension of Pseudoperonospora cubensis containing 1×10^3/ml were noculated by spraying on the test plants and then put them for 16 hours in an inoculation chamber (20° C. to 23° C.) to promote disease. Seven days after inoculation the disease severity of the test plants was observed and the effectiveness of test sample was judged. Tests were carried out using two plants for each test set and the disease severity of the test plants was judged. The preventive value was calculated from the degree of disease severity as in Example 1.

Pyricularia oryze = assay: whole plant or invertebrate; format: in vivo; settings: Pyricularia, in Oryza sativa, 168 h, read-out: Preventive value
[4] = 10000 ppm, per plot (1-3), 50 leaves
[5] = 50000 ppm, per plot (1-3), 50 leaves

Question: `O=C(CO)[C@@H](O)[C@@H](O)[C@H](O)CO` [D-Tagatose, D-tagatose] was tested. Which pest or weed control at 5000 ppm (Plasmopara viticola [1]) did it give?
Answer: 17%

Question: And the pest or weed control at 10000 ppm (Plasmopara viticola [1])?
Answer: 67%

Question: And the “D.D.S (Degree of disease severity), Av” value (Plasmopara viticola [2]; 10000 ppm)?
Answer: 12.75

Question: And the “P.V. (Preventive value), Av” value (Plasmopara viticola [2]; 10000 ppm)?
Answer: 71.7

Question: And the “n/N × 100, Av” value (Plasmopara viticola [2]; 10000 ppm)?
Answer: 31.0

Question: And the “D.D.S (Degree of disease severity)” value (Plasmopara viticola [2]; 10000 ppm, per plot (1-3))?
Answer: 14.50 and 18.50 and 11.00

Question: And the “P.V. (Preventive value)” value (Plasmopara viticola [2]; 10000 ppm, per plot (1-3))?
Answer: 72.0 and 64.3 and 78.7

Question: What about the “n/N × 100” value (Plasmopara viticola [2]; 10000 ppm, per plot (1-3)) of the same compound?
Answer: 36.0 and 32.0 and 26.0

Question: What about the “Disease severity 0: number of leaves” value (Plasmopara viticola [2]; [4]) of the same compound?
Answer: 32 and 34 and 37

Question: And the “Disease severity 1: number of leaves” value (Plasmopara viticola [2]; [4])?
Answer: 8 and 4

Question: And the “D.D.S (Degree of disease severity), Av” value (Plasmopara viticola [2]; 50000 ppm)?
Answer: 0.00

Question: And the “P.V. (Preventive value), Av” value (Plasmopara viticola [2]; 50000 ppm)?
Answer: 99.4

Question: And the “n/N × 100, Av” value (Plasmopara viticola [2]; 50000 ppm)?
Answer: 0.0

Question: And the “P.V. (Preventive value)” value (Plasmopara viticola [2]; 50000 ppm, per plot (1-3))?
Answer: 100.0 and 93.1

Question: And the “Disease severity 0: number of leaves” value (Plasmopara viticola [2]; [5])?
Answer: 50 and 48

Question: What about the “Disease severity 2: number of leaves” value (Plasmopara viticola [2]; [5]) of the same compound?
Answer: 0

Question: What about the “Disease severity 3: number of leaves” value (Plasmopara viticola [2]; [5]) of the same compound?
Answer: 0

Question: What about the “Disease severity 4: number of leaves” value (Plasmopara viticola [2]; [5]) of the same compound?
Answer: 0

Question: And the effectiveness in words (Plasmopara viticola [2]; field test)?
Answer: effective enough

Question: And the Preventive value ([3]; 10000 ppm)?
Answer: 95.0

Question: And the Preventive value ([3]; 10000 ppm, listed as D-tagatose)?
Answer: 95

Question: And the Preventive value ([3]; 50000 ppm)?
Answer: 100.0

Question: And the Preventive value ([3]; 50000 ppm, listed as D-tagatose)?
Answer: 100

Question: What about the effectiveness in words ([3]; drench treatment) of the same compound?
Answer: effective enough

Question: And the pest or weed control at 10000 ppm (Pyricularia oryze)?
Answer: 0%

Question: What about the pest or weed control at 50000 ppm (Pyricularia oryze) of the same compound?
Answer: 50%

— patent US20110281807A1, “PLANT DISEASE CONTROL AGENT COMPRISING D-TAGATOSE AS ACTIVE INGREDIENT, AND PLANT DISEASE CONTROL METHOD” (NATIONAL UNIVERSITY CORPORATION KAGAWA UNIVERSITY, priority 2008, published 2011)
